In assay [1] the test system is GR (glyphosate resistant) palmer amaranth (AMAPA). The experiment in a line: Greenhouse pre-emergent efficacy, Example 3B. The class given is in vivo, Amaranthus palmeri. The source says: (§1) ACC, DFF and MRB were used as the commercial products Warrant®, Brodal® and TriCor® DF as described in Example 3A above. Further, also a DFF+MRB pre-mix (200 g/L DFF+400 g/L MRB, suspension concentrate) was used. For GR (glyphosate resistant) palmer amaranth (AMAPA), at 1X rate, all 2- and 3-way treatments provided >95% control. Except for the DFF+MRB pre-mix, these treatments also provided >95% control of GR AMAPA at ½X rate as well. No single active ingredient provided acceptable control of GR AMAPA in this trial.

A further assay relates to proso millet (PANMI). The assay can be described thus: Greenhouse pre-emergent efficacy, Example 3B. The class given is in vivo, Panicum miliaceum. To be noted: both rates tested.
Source text: as §1

Assay [2] concerns glyphosate resistant Canola (Roundup Ready® Canola). The assay can be described thus: Greenhouse post-emergent efficacy in glyphosate resistant Canola, Example 3C. To be noted: text statement on Table 3C. The class given is in vivo. As to the method:
ACC and DFF were used as the commercial products Warrant® and Brodal® as described in Example 3A above. The seeds of glyphosate resistant Canola (Roundup Ready® Canola) were planted in 3.5-inches (8.89 cm) square plastic pots filled with a potting media of 75% silt loam and 25% Redi-earth (Sun Gro, Bellevue, WA). The temperature conditions were 22° C. day and 17° C. night with 14 hours of supplemental light (approximately 600 microeinsteins). The pots are placed in a controlled-environment greenhouse equipped with sub-irrigation. The treatments applications were applied to the plants with a track sprayer generally using a TTI110015 nozzle spray nozzle. The spray nozzle was 16 inches (40.64 cm) above the top of the plants and a spray volume rate of about 140 L/ha was applied. The plants were sprayed when canola was at the V3-V4 growth stage. Visual ratings (% control) were collected at 14 DAT.

Take `CCOCN(C(=O)CCl)c1c(C)cccc1CC` [ACC, 2-chloro-N-(ethoxymethyl)-N-(2-ethyl-6-methylphenyl)acetamide]: the “control of GR AMAPA, in words” value in assay [1] was “weak control”. For the same compound, in the assay with proso millet (PANMI), the “control of proso millet (PANMI), in words” value is “weak control”. For the same compound, the “herbicidal activity on glyphosate resistant Canola, in words” value in assay [2] is listed as “very low herbicidal activity”.
For the compound `O=C(Nc1ccc(F)cc1F)c1cccnc1Oc1cccc(C(F)(F)F)c1` [DFF, N-(2,4-difluorophenyl)-2-[3-(trifluoromethyl)phenoxy]-3-pyridinecarboxamide], the “control of GR AMAPA, in words” value in assay [1] is given as “weak control”. The “control of proso millet (PANMI), in words” value in the assay with proso millet (PANMI) is recorded as “weak control”.

The values are drawn from patent US20240008480A1, “MICROCAPSULE WITH ACETAMIDES AND DIFLUFENICAN” (MONSANTO TECHNOLOGY LLC, priority 2020, published 2024).
